Like-named read-outs stand apart in the source and are kept apart here.

One assay concerns E. coli CSH2 (RK1). Description: microbe, parasite or virus in culture. In kind it is cell-based. To be noted: Escherichia coli, 16 h, read-out: Minimum Inhibitory Concentration (MIC), *E. coli CSH2 (RK1), lactamase-producing strain; 10^6 CFU/ml. In short, it runs like this: (§1)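 MICs (μg/ml) were read after 16 hours at 37°C. Test strains, grown overnight in Mueller Hinton broth, were spotted at 10^6 CFU/ml onto Mueller Hinton agar plates containing the compounds at a range of concentrations.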

The test system of another assay is E. coli CSH(RE45). Nature of the assay: microbe, parasite or virus in culture. The format is cell-based. To be noted: Escherichia coli, 16 h, read-out: Minimum Inhibitory Concentration (MIC), *E. coli CSH(RE45), lactamase-producing strain; 10^6 CFU/ml. The method in brief:
as §1

In another assay the test system is P. vulgaris HX-19. Nature of the assay: in vitro antibacterial activity, agar plate dilution method (MIC). The format is cell-based. The following applies: Proteus vulgaris, HX19, 16 h, read-out: Minimum Inhibitory Concentration (MIC). The method in brief: as §1
The test system of another assay is S. aureus 209P NIHJ-JC1. The assay is described as above. The format is cell-based. To be noted: Staphylococcus aureus, 16 h. In short, it runs like this:
as §1

The next assay concerns E. cloacae Nek 39. Described as above. The format is cell-based. The following applies: Enterobacter cloacae, NEK39, 16 h, 10^6 CFU/ml. The method in brief: as §1
Another assay concerns S. marcescens IAM 1184. The assay is described as above. The format is cell-based. To be noted: Serratia marcescens, IAM1184, 16 h, read-out: Minimum Inhibitory Concentration (MIC). The method in brief:
as §1

In a further assay the test system is K. pneumoniae No. 42. The assay is described as above. The format is cell-based. To be noted: Klebsiella pneumoniae, 10^6 CFU/ml. In short, it runs like this:
as §1

A further assay deals with S. marcescens No. 16-2. The description is as above. In kind it is cell-based. To be noted: Serratia marcescens, NO.162, 16 h. In short, it runs like this: as §1
Another assay has as its system E. cloacae 963. The assay is described as above. In kind it is cell-based. The following applies: Enterobacter cloacae, 963, 16 h, read-out: Minimum Inhibitory Concentration (MIC), E. cloacae 963; 10^6 CFU/ml. The method in brief:
as §1

The next assay relates to E. coli GN5482. The assay is described as above. In kind it is cell-based. The following applies: Escherichia coli, GN5482, 16 h. The method in brief:
as §1

A further assay relates to K. pneumoniae PCI-602. Described as above. In kind it is cell-based. The following applies: Klebsiella pneumoniae, PCI602, 16 h, 10^6 CFU/ml. In short, it runs like this:
as §1

In a further assay the test system is P. vulgaris No. 33. Described as above. The format is cell-based. The following applies: Proteus vulgaris, NO.33, 16 h, read-out: Minimum Inhibitory Concentration (MIC), *P. vulgaris No. 33, lactamase-producing strain; 10^6 CFU/ml. The method in brief: as §1
A further assay relates to E. coli NIHJ JC2. The description is as above. In kind it is cell-based. The following applies: Escherichia coli, NIHJJC2, 16 h, read-out: Minimum Inhibitory Concentration (MIC), E. coli NIHJ JC2, 10^6 CFU/ml, 37° C. The method in brief: as §1
The next assay relates to K. oxytoca GN10650. The assay is described as above. The format is cell-based. To be noted: Klebsiella oxytoca, GN10650, 16 h, read-out: Minimum Inhibitory Concentration (MIC), *K. oxytoca GN10650, lactamase-producing strain; 10^6 CFU/ml. The method in brief: as §1
The test system of the next assay is M. morganii GN5407. The assay is described as above. To be noted: Morganella morganii, GN5407, 16 h, read-out: Minimum Inhibitory Concentration (MIC), *M. morganii GN5407, lactamase-producing strain; 10^6 CFU/ml. The format is cell-based. In short, it runs like this: as §1
The subject of the next assay is A. calcoaceticus No. 4. The assay is described as above. In kind it is cell-based, Acinetobacter calcoaceticus. To be noted: Acinetobacter calcoaceticus, NO.4, 16 h, 10^6 CFU/ml. The method in brief: as §1
In the next assay the test system is Ps. aeruginosa AK 109. Described as above. To be noted: Pseudomonas aeruginosa, AK109, 16 h, read-out: Minimum Inhibitory Concentration (MIC). The format is cell-based, Pseudomonas aeruginosa. The method in brief:
as §1

The subject of a further assay is Ps. aeruginosa IF03445. The assay is described as above. The format is cell-based, Pseudomonas aeruginosa. The following applies: Pseudomonas aeruginosa, 10^6 CFU/ml. The method in brief: as §1
The subject of the next assay is Ps. aeruginosa AKR17. The assay is described as above. The format is cell-based, Pseudomonas aeruginosa. The following applies: Pseudomonas aeruginosa, read-out: Minimum Inhibitory Concentration (MIC). In short, it runs like this:
as §1

The next assay has as its system Ps. cepacia 23. The description is as above. The following applies: read-out: Minimum Inhibitory Concentration (MIC). In kind it is cell-based, Pseudomonas cepacia. In short, it runs like this: as §1
[1] abbreviates: read-out: Minimum Inhibitory Concentration (MIC), S. aureus 209P NIHJ-JC1, 10^6 CFU/ml, 37° C., 16 hours.
Setting [2] is: NO.42, 16 h, read-out: Minimum Inhibitory Concentration (MIC), *K. pneumoniae No. 42, lactamase-producing strain.
The mark [3] stands for this setting: read-out: Minimum Inhibitory Concentration (MIC).
Where [4] appears, read: A. calcoaceticus No. 4, read-out: Minimum Inhibitory Concentration (MIC).
[5] abbreviates: 16 h, Ps. aeruginosa AKR17, 10^6 CFU/ml.
Where [6] appears, read: read-out: Minimum Inhibitory Concentration (MIC), *E. cloacae Nek 39, lactamase-producing strain.
[7] abbreviates: read-out: Minimum Inhibitory Concentration (MIC), *E. coli GN5482, lactamase-producing strain, 10^6 CFU/ml.
The mark [8] stands for this setting: read-out: Minimum Inhibitory Concentration (MIC), K. pneumoniae PCI-602.
[9] abbreviates: IF03445, 16 h, read-out: Minimum Inhibitory Concentration (MIC), Ps. aeruginosa IF03445.
Setting [10] is: Burkholderia cepacia, 16 h, Ps. cepacia 23, 10^6 CFU/ml.
Setting [11] is: read-out: Minimum Inhibitory Concentration (MIC), A. calcoaceticus No. 4.

For `CC(C)(O/N=C(\C(=O)N[C@@H]1C(=O)N2C(C(=O)O)=C(CSc3ncc(-c4ccc(O)cc4)o3)CS[C@H]12)c1csc(N)n1)C(=O)O` [compound 24, disodium 7β-[2-(2-aminothiazol-4-yl)-2-(1-carboxylate-1-methylethoxyimino)acetamido]-3-[5-(4-hydroxyphenyl)oxazol-2-yl]thiomethyl-3-cephem-4-carboxylate, reference compound], the MIC is 3.12 µg/mL in the assay with E. coli CSH2 (RK1); 3.12 µg/mL in the assay on E. coli CSH(RE45); under 0.006 µg/mL in the assay with P. vulgaris HX-19 (P. vulgaris HX-19, 10^6 CFU/ml); 6.25 µg/mL in the assay on S. aureus 209P NIHJ-JC1 (setting [1]); 25 µg/mL with E. cloacae Nek 39 (*E. cloacae Nek 39, lactamase-producing strain, read-out: Minimum Inhibitory Concentration (MIC)); 3.12 µg/mL in the assay with S. marcescens IAM 1184. Further, the MIC was determined as 12.5 µg/mL in the assay with K. pneumoniae No. 42 (setting [2]); 25 µg/mL with S. marcescens No. 16-2 (*S. marcescens No. 16-2, lactamase-producing strain, 10^6 CFU/ml, read-out: Minimum Inhibitory Concentration (MIC)); 12.5 µg/mL in the assay with E. cloacae 963; 3.12 µg/mL in the assay with E. coli GN5482 (setting [3]); 0.2 µg/mL in the assay on K. pneumoniae PCI-602 (K. pneumoniae PCI-602, read-out: Minimum Inhibitory Concentration (MIC)); 0.39 µg/mL with P. vulgaris No. 33. Further, the MIC with E. coli NIHJ JC2 is 12.5 µg/mL; in the assay with K. oxytoca GN10650, 6.25 µg/mL; with M. morganii GN5407 it was 6.25 µg/mL; with A. calcoaceticus No. 4 (setting [4]), over 100 µg/mL; with Ps. aeruginosa AK 109 (Ps. aeruginosa AK 109, 10^6 CFU/ml), 25 µg/mL; with Ps. aeruginosa IF03445 (16 h, Ps. aeruginosa IF03445, read-out: Minimum Inhibitory Concentration (MIC)) it was 25 µg/mL. Also, the MIC in the assay with Ps. aeruginosa AKR17 (setting [5]) is over 100 µg/mL; with Ps. cepacia 23 (Burkholderia cepacia, 23, 16 h), 6.25 µg/mL.

Turning to `C=CCO/N=C(\C(=O)N[C@@H]1C(=O)N2C(C(=O)O)=C(CSc3nnc(-c4ccc(O)c(O)c4)s3)CS[C@H]12)c1csc(N)n1` [compound 30, sodium 78-[2-allyloxyimino-2-(2-aminothiazol-4-yl)acetamido]-3-[5-(3,4-dihydroxyphenyl)-1,3,4-thiadiazol-2-yl]thiomethyl-3-cephem-4-carboxylate], the MIC in the assay with E. coli CSH2 (RK1) is 0.0125 µg/mL; with E. coli CSH(RE45), 0.78 µg/mL; with P. vulgaris HX-19 (P. vulgaris HX-19, 10^6 CFU/ml) it was under 0.006 µg/mL; with S. aureus 209P NIHJ-JC1 (setting [1]) it was 0.78 µg/mL; in the assay on E. cloacae Nek 39 (setting [6]), 0.1 µg/mL; in the assay on S. marcescens IAM 1184, 0.0125 µg/mL. In addition, the MIC was under 0.006 µg/mL in the assay with K. pneumoniae No. 42 (16 h, *K. pneumoniae No. 42, lactamase-producing strain, read-out: Minimum Inhibitory Concentration (MIC)); 12.5 µg/mL in the assay with S. marcescens No. 16-2 (setting [3]); 0.05 µg/mL in the assay with E. cloacae 963; 0.78 µg/mL with E. coli GN5482 (setting [7]); under 0.006 µg/mL in the assay with K. pneumoniae PCI-602 (setting [8]); 0.39 µg/mL in the assay with P. vulgaris No. 33. The MIC in the assay on E. coli NIHJ JC2 was 0.2 µg/mL; in the assay with K. oxytoca GN10650, 1.56 µg/mL; in the assay with M. morganii GN5407, 0.05 µg/mL; in the assay on A. calcoaceticus No. 4 (setting [4]), 0.2 µg/mL; with Ps. aeruginosa AK 109 it was 0.39 µg/mL; in the assay on Ps. aeruginosa IF03445 (setting [9]) it was 0.39 µg/mL. Besides, the MIC is 25 µg/mL in the assay with Ps. aeruginosa AKR17 (setting [5]) and under 0.006 µg/mL in the assay on Ps. cepacia 23 (setting [10]).

As to `CON=C(C(=O)NC1C(=O)N2C(C(=O)O)=C(CSc3nc(-c4ccc(O)c(O)c4)cs3)CSC12)c1csc(N)n1` (stereo not drawn) [compound 39, sodium 7β-[2-(2-aminothiazol-4-yl)-2-methoxviminoacetamido]-3-[4-(3,4-dihydroxyphenvl)-thiazol-2-yl]thiomethyl-3-cephem-4-carboxylate], the MIC with E. coli CSH2 (RK1) is 0.0125 µg/mL; in the assay with E. coli CSH(RE45) it was 0.1 µg/mL; with P. vulgaris HX-19 (P. vulgaris HX-19, 10^6 CFU/ml), under 0.006 µg/mL; with S. aureus 209P NIHJ-JC1 (setting [1]), 1.56 µg/mL; in the assay on E. cloacae Nek 39 (setting [6]), 0.39 µg/mL; in the assay with S. marcescens IAM 1184 (S. marcescens IAM 1184, 10^6 CFU/ml), 0.05 µg/mL. For the same molecule, the MIC with K. pneumoniae No. 42 (setting [2]) is 0.2 µg/mL; with S. marcescens No. 16-2 (setting [3]) it was 3.12 µg/mL; in the assay on E. cloacae 963 it was 0.025 µg/mL; with E. coli GN5482 (setting [7]), 0.78 µg/mL; in the assay on K. pneumoniae PCI-602 (setting [8]), under 0.006 µg/mL; with P. vulgaris No. 33, 0.05 µg/mL. The MIC in the assay on E. coli NIHJ JC2 was 0.1 µg/mL; with K. oxytoca GN10650, 1.56 µg/mL; in the assay with M. morganii GN5407, 0.05 µg/mL; in the assay with A. calcoaceticus No. 4 (setting [11]), 0.39 µg/mL; in the assay on Ps. aeruginosa AK 109, 3.12 µg/mL; with Ps. aeruginosa IF03445 (setting [9]), 1.56 µg/mL. The MIC was over 100 µg/mL in the assay on Ps. aeruginosa AKR17 (setting [5]) and 0.2 µg/mL with Ps. cepacia 23 (setting [10]).

With `CCON=C(C(=O)N[C@@H]1C(=O)N2C(C(=O)[O-])=C(CSc3nc(-c4ccc(O)c(O)c4)cs3)CS[C@H]12)c1csc(N)n1.[Na+]` [compound 48, sodium 7β-[2-(2-aminothiazol-4-yl)-2-ethoxyiminoacetamido]-3-[4-(3,4-dihydroxyphenyl)-thiazol-2-yl]thiomethyl-3-cephem-4-carboxylate], the MIC in the assay on E. coli CSH2 (RK1) worked out at 0.025 µg/mL; with E. coli CSH(RE45) it was 0.05 µg/mL; in the assay with P. vulgaris HX-19, 0.0125 µg/mL; with S. aureus 209P NIHJ-JC1 (setting [3]) it was 3.12 µg/mL; in the assay with E. cloacae Nek 39 (setting [6]) it was 0.78 µg/mL; with S. marcescens IAM 1184 it was 0.1 µg/mL. Moreover, the MIC is 0.05 µg/mL with K. pneumoniae No. 42 (setting [2]); 6.25 µg/mL in the assay on S. marcescens No. 16-2 (read-out: Minimum Inhibitory Concentration (MIC), *S. marcescens No. 16-2, lactamase-producing strain, 10^6 CFU/ml); 0.1 µg/mL in the assay on E. cloacae 963; 1.56 µg/mL with E. coli GN5482 (setting [7]); under 0.006 µg/mL with K. pneumoniae PCI-602 (setting [8]); 0.05 µg/mL in the assay with P. vulgaris No. 33. Also, the MIC with E. coli NIHJ JC2 was 0.39 µg/mL; in the assay with K. oxytoca GN10650 it was 1.56 µg/mL; with M. morganii GN5407, 0.1 µg/mL; in the assay with A. calcoaceticus No. 4 (setting [11]), 0.39 µg/mL; with Ps. aeruginosa AK 109, 0.39 µg/mL; with Ps. aeruginosa IF03445 (setting [9]) it was 1.56 µg/mL. In addition, the MIC in the assay with Ps. aeruginosa AKR17 (AKR17, 16 h) worked out at 50 µg/mL; in the assay on Ps. cepacia 23 (Burkholderia cepacia, 23, 16 h), 0.1 µg/mL.
